This note sets out measurements from patent US8454857B2, “Polymerizable liquid crystal compounds, polymerizable liquid crystal compositions, liquid crystalline polymers and optically anisotropic materials” (Zeon Corporation, priority 2008, dated 2013).

Holding throughout (format): physicochemical
A short description of data set [1]: Measurement of phase transition temperature (polarizing optical microscope, heated 30° C. to 300° C. and cooled). On the procedure: 10 mg of the polymerizable liquid crystal compound (the polymerizable liquid crystal compounds 1 and 2 obtained in Examples 1 and 2, and a polymerizable liquid crystal compound shown by the following formula (3) (“LC242” manufactured by BASF) (Comparative Example 1) (hereinafter referred to as “polymerizable liquid crystal compound 3”)) was weighed, and placed between two glass substrates provided with a rubbed polyimide alignment film.
The substrates were heated from 30° C. to 300° C. on a hot plate, and then cooled to 30° C. A change in structure during a change in temperature was observed using a polarizing optical microscope (“ECLIPSE LV100POL” manufactured by Nikon Corporation) to determine the phase transition temperature.
In Table 1, “C” indicates “Crystal”, “N” indicates “Nematic”, and “I” indicates “Isotropic”.

Data set [2] in a line: Solubility in cyclopentanone at 60° C., 40 wt % solution. More on the design: key: a case where the compound was dissolved in cyclopentanone is indicated by “Good”; a case where the compound was not dissolved in cyclopentanone is indicated by “Bad”. To be noted: compound concentration 40 wt %. The protocol: The solubility of the compound at 60° C. was evaluated when preparing a solution having a compound concentration of 40 wt %. In Table 1, a case where the compound was dissolved in cyclopentanone is indicated by “Good”, and a case where the compound was not dissolved in cyclopentanone is indicated by “Bad”.

A short description of data set [3]: Mutual solubility at 23° C. by naked eye observation when forming the cured film. More on the design: key: A case where turbidity was not observed was evaluated as “Good”; a case where turbidity was observed was evaluated as “Bad”. The conditions noted are these: naked eye observation of turbidity. On the procedure: 100 parts of the polymerizable liquid crystal compound (1 to 3) was dissolved in 153 parts of cyclopentanone. After the addition of 3.3 parts of a photoinitiator (“Irgacure 379” manufactured by Ciba Specialty Chemicals Co., Ltd.), 6 parts of a polymerizable chiral compound (compound shown by the formula (X)), and 11.6 parts of a surfactant (“KH-40” manufactured by AGC Seimi Chemical Co., Ltd.; 1 wt % cyclopentanone solution), the components were homogenously dissolved to prepare a polymerizable liquid crystal composition solution.
When forming the cured film of the compound, the mutual solubility of the compound at 23° C. was evaluated by naked eye observation. A case where turbidity was not observed was evaluated as “Good”, and a case where turbidity was observed was evaluated as “Bad”.

Data set [4] in a line: Measurement of optical anisotropy (value Δn) of cured polymer film. The conditions noted are these: cured polymer film 4 μm, 546 nm, Δn=Re/d. On the procedure: 100 parts of the polymerizable liquid crystal compound (1 to 3) was dissolved in 233 parts of cyclopentanone. 2.7 parts of a photoinitiator (“Irgacure 907” manufactured by Ciba Specialty Chemicals Co., Ltd.) was homogenously dissolved in the solution. The resulting solution was applied to a glass substrate provided with a rubbed polyimide alignment film using a bar coater (“SA-203” manufactured by Tester Sangyo Co., Ltd., Rod No. 4, shaft diameter: 12.7 mm). After drying the resulting film at 100° C. for 5 minutes on a hot plate, ultraviolet rays (1000 mJ/cm^2) were applied to the film from a mercury lamp to obtain a cured polymer film having a thickness of 4 μm.
The extinction position (θ) of the cured film was measured using an optical microscope (“ECLIPSE E600POL (transmission/reflection type)” manufactured by Nikon Corporation, equipped with a sensitive tint plate, a λ/4 wave plate, a Sénarmont compensator, and a GIF filter (546 nm). The retardation (Re) was calculated by “Re=λ(546 nm)×θ/180”. The value Δn was calculated by “Δn=Re/d” (where, d is the thickness of the liquid crystal layer). The calculation results are shown in Table 1.

As for `C=CC(=O)OCCCCOC(=O)Oc1ccc(C(=O)Oc2ccc(OC(=O)c3ccc(OC(=O)OCCCCOC(=O)C=C)cc3)c(C)c2)cc1` [Polymerizable liquid crystal compound 3], the “Liquid crystallinity temperature range” value in data set [1] (heated from 30° C. to 300° C., then cooled to 30° C., between glass substrates with rubbed polyimide alignment film) turned out to be 63 °C. Moreover, the “liquid crystallinity temperature range (in words)” value in data set [1] (summary of Table 1) was “liquid crystallinity within a narrow temperature range”. In data set [2], the Solubility result was “Good”. For the same compound, the Mutual solubility result in data set [3] is listed as “Good”. This compound also returned a Δn in data set [4] of 0.142.
